Earlier results as cited in PMC9389927 (Renal Failure, 2022).

System: experimental model of AKI

## IGF-1: long-chain polypeptide composed of dozens of amino acids, including four domains, A, B, C and D
  Glomerular filtration rate: increased the glomerular filtration rate
